In data set [1] the test system is patients diagnosed with MDD. Particulars: citalopram non-responders, cited from earlier work.
Data set [2] in a line: Solubility (37° C.) in 0.1N HCl, pH 4.5, pH 6.8. Particulars: hydrochloride. The data set is classed as physicochemical. Details: Solubility (37° C.): unit not given here.
A short description of data set [3]: In-vitro dissolution, 900 ml medium (0.1N HCl, pH 4.5 acetate buffer, pH 6.8 or pH 7.5 phosphate buffer), USP Apparatus 1, 75 rpm, 37° C. The data set is classed as physicochemical. Conditions: 0.1N HCl; for % Released (Bi-layer Tablets): Example 16 coated bi-layer tablet; for % Released (Homogenous Tablets): Example 19 tablet. As for the experimental part: The dissolution profile of the above pharmaceutical composition was determined under the dissolution conditions described below in Tables 1A, 1B, and 1C.

Structures can show the parent of a compound that is named as a salt. Where two headings read alike, the source gives them in different places.

On to `CC(NC(C)(C)C)C(=O)c1cccc(Cl)c1` (stereo not drawn) [Bupropion, bupropion], for which the remission rate is 30% in data set [1] (bupropion added on to the existing citalopram treatment) and 20% in data set [1] (switched to bupropion).

Regarding `CC(NC(C)(C)C)C(=O)c1cccc(Cl)c1` (stereo not drawn) [Bupropion HCl, bupropion hydrochloride], the “Solubility (37° C.)” value in data set [2] (0.1N HCl) amounted to 416; in data set [2] (pH 4.5), 437; in data set [2] (pH 6.8), 437. In addition, the “% Released (Bi-layer Tablets)” value in data set [3] (1 hr) is 16.36%; in data set [3] (2 hr), 33.56%; in data set [3] (3 hr), 49.54%; in data set [3] (4 hr) it was 65.00%; in data set [3] (5 hr), 79.63%; in data set [3] (6 hr) it was 88.97%. Moreover, the “% Released (Bi-layer Tablets)” value is 94.82% in data set [3] (7 hr) and 97.06% in data set [3] (8 hr). Also, the “% Released (Homogenous Tablets)” value is 16.63% in data set [3] (1 hr); 39.40% in data set [3] (2 hr); 60.60% in data set [3] (3 hr); 78.36% in data set [3] (4 hr); 90.30% in data set [3] (5 hr); 96.38% in data set [3] (6 hr). Also, the “% Released (Homogenous Tablets)” value in data set [3] (7 hr) is reported as 99.14%; in data set [3] (8 hr), 100.26%.

The values are drawn from patent publication US20090246276A1, “Pharmaceutical Compositions” (priority 2008, published 2009).
